Experimental data from patent publication US10654866B2, “Selective estrogen receptor degraders” (Eli Lilly and Company, priority 2018, dated 2020).
Like-named read-outs stand apart in the source and are kept apart here.

Legend:
MCF7 ESR1 wild type = assay: Cell proliferation assay in MCF7; format: cell-based, human; details: seven days, read-out: Relative IC50 (μM) MCF7 ESR1 wild type
Method: (§1) Seed MCF7 (purchased from ATCC HTB-22) cells at a density of 2,000 cells per well in DMEM phenol red free media 10% FBS (20 μL volume) (charcoal stripped) into a clear bottom 384-well cell culture plate. Plate MCF7-ESRY537N-682 (generated by CRISPR/Cas9 gene editing of ESr1 gene in MCF7 cells, clone #682) in DMEM media supplemented with 10% FBS, and 1% penicillin/streptomycin antibiotics at a density of 1000 cells per well. Incubate the plates at 37° C. and 5% CO2. The following day dose the cells with the test compound. Use an Echo 555 acoustic dispenser to prepare test compound serial dilutions (1:3) in a range from 60 μM to 0.003 μM. Dose the cells with the addition of 5 μL from the serial dilution plate to the cell plate, producing a final DMSO concentration of 0.2% with a final test compound concentration dose range between 20 and 0.001 μM. For the maximum point use media containing 0.2% of DMSO and for the minimum point use fulvestrant diluted at 2 μM final concentrations in the growth media containing 0.2% DMSO. After dosing with the test compound, incubate the cell plates at 37° C. and 5% CO2. Seven days after test compound addition, remove the plates from the incubator and add cold EtOH 96% (65 μL) to each well. […] Seal the plates and incubate 1 hour at room temperature on the bench (preserved from light). Scan the plates with ACUMEN EXPLORER™ [Laser-scanning fluorescence microplate cytometer manufactured by TTP LABTECH LTD].

[1] = test system: MCF7 ESR1 Y537N mutant cells; assay: Cell proliferation assay in MCF7-ESR1 Y537N-682; format: cell-based, human; details: seven days, read-out: Relative IC50 (μM) MCF7 ESR1 Y537N mutant cells
Method: as §1

ERα (wild type) = ERα (wild type) (Homo sapiens (Human), UniProt P03372); assay: ERα (wild type) competition binding assay; details: 3H-estradiol competition; Ki from IC50 by Cheng-Prusoff
Method: Add the test compound at 10 different concentrations ranging from 10,000 nM to 0.5 nM, and determine nonspecific binding in the presence of 1 μM of 1713 estradiol. Incubate the binding reaction (140 μL) for 4 hours at room temperature, and then add cold dextran-charcoal buffer (70 μL) (containing per 50 mL of assay buffer, 0.75 g of charcoal and 0.25 g of dextran) to each reaction. Mix the plates for 8 minutes on an orbital shaker at 4° C. and then centrifuge at 3000 rpm at 4° C. for 10 minutes. Transfer an aliquot (120 μL) of the mixture to another 96-well, white flat bottom plate (Costar) and add Perkin Elmer Optiphase Supermix scintillation fluid (175 μL) to each well. Seal the plates and shake vigorously on an orbital shaker. After an incubation of 2.5 hours, read the plates in a Wallac Microbeta counter. […] Convert the IC50 values for the compound to Ki using Cheng-Prusoff equation.

ERα = ERα (Homo sapiens (Human), UniProt P03372); assay: PRα inhibition (ERα functional antagonism) cell assay in MCF7 cells; format: cell-based; details: MCF7 cells pretreated with 0.47 nM estradiol, % PRα positive cells; read-out: Relative IC50
From the text: The purpose of the following PRα inhibition (ERα functional antagonism) cell assay is to determine the antagonistic activity of a test compound against the ERα receptor. An antagonist in this assay is expected to block the function of the ERα receptor.
Carry out the assay conditions as detailed in the ERα degradation Cell base Acumen assay above, using the MCF7 cell line except that, prior to test compound dispensing, remove the media from the cell plate and pretreat all wells except for the negative control wells (column 24 of the plate) with assay media containing 0.47 nM estradiol for 30 minutes. In this assay, carry out immunostaining for the detection of PRα and scan the plates with ACUMEN EXPLORER™ [Laser-scanning fluorescence microplate cytometer manufactured by TTP LABTECH LTD] to measure PRα. Image analysis is based on cellular fluorescent signals for identifying positive cells. Identify PRα positive cells by mean intensity. Use total intensity at 575-640 from propidium iodide/DNA to identify individual cells. Assay output is % PRα positive cells. Determine the IC50 by curve fitting to a four parameter logistic for each output using GENE DATA™.

Sequence of ERα (P03372 whole entry): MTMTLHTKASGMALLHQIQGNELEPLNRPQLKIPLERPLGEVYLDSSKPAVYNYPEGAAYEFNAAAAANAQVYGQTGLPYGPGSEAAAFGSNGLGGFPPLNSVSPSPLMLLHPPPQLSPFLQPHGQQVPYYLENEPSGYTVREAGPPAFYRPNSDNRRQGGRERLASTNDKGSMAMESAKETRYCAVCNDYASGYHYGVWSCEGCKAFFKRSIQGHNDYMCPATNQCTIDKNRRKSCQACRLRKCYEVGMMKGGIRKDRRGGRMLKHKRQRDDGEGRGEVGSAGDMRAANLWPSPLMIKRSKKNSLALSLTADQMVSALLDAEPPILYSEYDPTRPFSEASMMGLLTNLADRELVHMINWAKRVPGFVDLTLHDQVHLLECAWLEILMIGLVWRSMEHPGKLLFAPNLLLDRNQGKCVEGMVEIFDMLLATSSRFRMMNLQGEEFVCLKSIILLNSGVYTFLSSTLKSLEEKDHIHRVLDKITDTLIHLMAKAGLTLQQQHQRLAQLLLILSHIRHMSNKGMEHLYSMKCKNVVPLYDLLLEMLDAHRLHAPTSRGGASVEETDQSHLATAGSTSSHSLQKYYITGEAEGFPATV
Sequence of ERα (wild type) (P03372 whole entry): as above

IC50 (MCF7 ESR1 wild type; Homo sapiens, MCF7, […]) [µM] | IC50 ([1]; Homo sapiens, MCF7, […]) [µM] | Ki (ERα (wild type)) [nM] | IC50 (ERα) [µM] | IC50 (MCF7 ESR1 wild type) [µM] | IC50 [1] [µM] | SMILES
0.00425 | 0.0511 | 2.17 | 0.163 | – | – | Oc1ccc2c3c(cnc2c1)-c1cccc(C(F)(F)F)c1OC3c1ccc(OCCN2CC(CF)C2)cc1 (racemic) [Example 2, 5-(4-{2-[3-(fluoromethyl)azetidin-1-yl]ethoxy}phenyl)-7-(trifluoromethyl)-5H-[1]benzopyrano[4,3-c]quinolin-2-ol]
0.0286 | 0.0266 | 0.64 | 0.0763 ± 0.168 | – | – | Oc1ccc2c3c(cnc2c1)-c1cccc(Cl)c1OC3c1ccc(OCCN2CC(CF)C2)cc1 (racemic) [Example 4, 7-chloro-5-(4-{2-[3-(fluoromethyl)azetidin-1-yl]ethoxy}phenyl)-5H-[1]benzopyrano[4,3-c]quinolin-2-ol]
0.0801 | 0.0725 ± 0.0263 | 2.82 | 0.118 ± 0.0123 | – | – | Oc1ccc2c3c(cnc2c1)-c1ccc(F)cc1OC3c1ccc(OCCN2CC(CF)C2)cc1 (racemic) [Example 5, 8-fluoro-5-(4-{2-[3-(fluoromethyl)azetidin-1-yl]ethoxy}phenyl)-5H-[1]benzopyrano[4,3-c]quinolin-2-ol]
0.0513 | 0.0236 | 4.14 | 0.0826 ± 0.00568 | – | – | Oc1ccc2c3c(cnc2c1)-c1cccc(F)c1OC3c1ccc(OCCN2CC(CF)C2)cc1 (racemic) [Example 6, 7-fluoro-5-(4-{2-[3-(fluoromethyl)azetidin-1-yl]ethoxy}phenyl)-5H-[1]benzopyrano[4,3-c]quinolin-2-ol]
0.019 | 0.0448 ± 0.0119 | 1.55 | 0.113 ± 0.0209 | – | – | Cc1ccc2c(c1)OC(c1ccc(OCCN3CC(CF)C3)cc1)c1c-2cnc2cc(O)ccc12 (racemic) [Example 7, 5-(4-{2-[3-(fluoromethyl)azetidin-1-yl]ethoxy}phenyl)-8-methyl-5H-[1]benzopyrano[4,3-c]quinolin-2-ol]
0.0416 | 0.0329 ± 0.003 | 3.2 | 0.0683 ± 0.0227 | – | – | Cc1cccc2c1OC(c1ccc(OCCN3CC(CF)C3)cc1)c1c-2cnc2cc(O)ccc12 (racemic) [Example 8, 5-(4-{2-[3-(fluoromethyl)azetidin-1-yl]ethoxy}phenyl)-7-methyl-5H-[1]benzopyrano[4,3-c]quinolin-2-ol]
– | – | 0.65 | 0.121 ± 0.0537 | 0.00612 | 0.0428 ± 0.00267 | Oc1ccc2c3c(cnc2c1)-c1cccc(C(F)(F)F)c1OC3c1ccc(OCCN2CC(CF)C2)cc1 (single isomer, unassigned) [Example 2A, 5-(4-{2-[3-(Fluoromethyl)azetidin-1-yl]ethoxy}phenyl)-7-(trifluoromethyl)-5H-[1]benzopyrano[4,3-c]quinolin-2-ol]
– | – | 60.4 | > 2 | 0.405 | 0.778 | Oc1ccc2c3c(cnc2c1)-c1cccc(C(F)(F)F)c1OC3c1ccc(OCCN2CC(CF)C2)cc1 (single isomer, unassigned) [Example 2B, 5-(4-{2-[3-(Fluoromethyl)azetidin-1-yl]ethoxy}phenyl)-7-(trifluoromethyl)-5H-[1]benzopyrano[4,3-c]quinolin-2-ol]
– | – | 16.8 | 0.846 | 0.286 | 0.544 ± 0.218 | Oc1ccc2c3c(cnc2c1)-c1cccc(Cl)c1OC3c1ccc(OCCN2CC(CF)C2)cc1 (single isomer, unassigned) [Example 4A, 7-Chloro-5-(4-{2-[3-(fluoromethyl)azetidin-1-yl]ethoxy}phenyl)-5H-[1]benzopyrano[4,3-c]quinolin-2-ol]
– | – | 0.34 | 0.0287 | 0.0035 | 0.0143 ± 0.00492 | Oc1ccc2c3c(cnc2c1)-c1cccc(Cl)c1OC3c1ccc(OCCN2CC(CF)C2)cc1 (single isomer, unassigned) [Example 4B, 7-Chloro-5-(4-{2-[3-(fluoromethyl)azetidin-1-yl]ethoxy}phenyl)-5H-[1]benzopyrano[4,3-c]quinolin-2-ol]
– | – | 12.5 | 0.6 | 0.41 | 0.517 ± 0.095 | Oc1ccc2c3c(cnc2c1)-c1ccc(F)cc1OC3c1ccc(OCCN2CC(CF)C2)cc1 (single isomer, unassigned) [Example 5A, 8-Fluoro-5-(4-{2-[3-(fluoromethyl)azetidin-1-yl]ethoxy}phenyl)-5H-[1]benzopyrano[4,3-c]quinolin-2-ol]
– | – | 1.3 | 0.032 ± 0.00531 | 0.00767 | 0.0213 ± 0.013 | Oc1ccc2c3c(cnc2c1)-c1ccc(F)cc1OC3c1ccc(OCCN2CC(CF)C2)cc1 (single isomer, unassigned) [Example 5B, 8-Fluoro-5-(4-{2-[3-(fluoromethyl)azetidin-1-yl]ethoxy}phenyl)-5H-[1]benzopyrano[4,3-c]quinolin-2-ol]
0.0759 | – | 8.53 | 0.253 | – | 0.323 ± 0.176 | Oc1ccc2c3c(cnc2c1)-c1cccc(F)c1OC3c1ccc(OCCN2CC(CF)C2)cc1 (single isomer, unassigned) [Example 6A, 7-Fluoro-5-(4-{2-[3-(fluoromethyl)azetidin-1-yl]ethoxy}phenyl)-5H-[1]benzopyrano[4,3-c]quinolin-2-ol]
– | – | 1.13 | 0.0284 | – | 0.0154 | Oc1ccc2c3c(cnc2c1)-c1cccc(F)c1OC3c1ccc(OCCN2CC(CF)C2)cc1 (single isomer, unassigned) [Example 6B, 7-Fluoro-5-(4-{2-[3-(fluoromethyl)azetidin-1-yl]ethoxy}phenyl)-5H-[1]benzopyrano[4,3-c]quinolin-2-ol]
– | – | 9.33 | 0.206 | 0.174 | 0.662 ± 0.117 | Cc1cccc2c1OC(c1ccc(OCCN3CC(CF)C3)cc1)c1c-2cnc2cc(O)ccc12 (single isomer, unassigned) [Example 8A, 5-(4-{2-[3-(Fluoromethyl)azetidin-1-yl]ethoxy}phenyl)-7-methyl-5H-[1]benzopyrano[4,3-c]quinolin-2-ol]
– | – | 0.94 | 0.0485 ± 0.0294 | 0.00508 | 0.0142 ± 0.0111 | Cc1cccc2c1OC(c1ccc(OCCN3CC(CF)C3)cc1)c1c-2cnc2cc(O)ccc12 (single isomer, unassigned) [Example 8B, 5-(4-{2-[3-(Fluoromethyl)azetidin-1-yl]ethoxy}phenyl)-7-methyl-5H-[1]benzopyrano[4,3-c]quinolin-2-ol]
